# Measured values from US9340600B2 (Indiana University Research and Technology Corporation, priority 2012, dated 2016).
# *1 amine or outer side, *2 acyl side, *3 side chain or, on linkers, in order; H or OH if unused. Where a SMILES comes first, the peptide text is derived from it. Side-chain parts run from the residue outwards. [ ]: non-standard residue; d: D form. The star is where a group is joined. γGlu = O=C(O)[C@H](CCC(=O)[*:2])N[*:1]; Palmitoyl = CCCCCCCCCCCCCCCC(=O)*; Aib = CC(C)(N)C(=O)O
# Legend:
# [1] = target: T1, glucagon receptor (Homo sapiens, UniProt P47871); experiment: cAMP induction, firefly luciferase-based reporter assay in HEK293 cells co-transfected with glucagon receptor; assay type: cell-based; details: EC50 at Glucagon Receptor, Table 5, analogs of SEQ ID NO: 10
# T1 construct: expressed in transfected cells; host or cells: HEK293
# T1 sequence (P47871 26-477): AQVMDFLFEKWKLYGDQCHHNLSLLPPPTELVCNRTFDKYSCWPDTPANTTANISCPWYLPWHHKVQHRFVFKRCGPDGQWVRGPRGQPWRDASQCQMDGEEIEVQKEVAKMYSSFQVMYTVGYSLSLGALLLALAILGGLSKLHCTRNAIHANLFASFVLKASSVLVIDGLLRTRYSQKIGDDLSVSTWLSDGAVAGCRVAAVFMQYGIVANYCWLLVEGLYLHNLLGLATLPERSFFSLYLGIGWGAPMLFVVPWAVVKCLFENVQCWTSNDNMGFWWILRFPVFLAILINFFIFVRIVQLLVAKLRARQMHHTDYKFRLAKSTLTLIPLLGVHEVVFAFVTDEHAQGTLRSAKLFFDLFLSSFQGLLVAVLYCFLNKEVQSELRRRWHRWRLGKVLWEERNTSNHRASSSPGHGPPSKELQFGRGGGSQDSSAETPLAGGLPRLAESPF
# Excerpt: (§1) This example describes an exemplary method of testing the biological activity of the peptides of the present disclosures, which method involves assaying cAMP synthesis.
# [2] = target: T2, GLP-1 receptor (Homo sapiens, UniProt P43220); experiment: cAMP induction, firefly luciferase-based reporter assay in HEK293 cells co-transfected with GLP-1 receptor; assay type: cell-based; details: EC50 at GLP-1 Receptor, Table 5, analogs of SEQ ID NO: 10
# T2 construct: expressed in transfected cells; host or cells: HEK293
# T2 sequence (P43220 24-463): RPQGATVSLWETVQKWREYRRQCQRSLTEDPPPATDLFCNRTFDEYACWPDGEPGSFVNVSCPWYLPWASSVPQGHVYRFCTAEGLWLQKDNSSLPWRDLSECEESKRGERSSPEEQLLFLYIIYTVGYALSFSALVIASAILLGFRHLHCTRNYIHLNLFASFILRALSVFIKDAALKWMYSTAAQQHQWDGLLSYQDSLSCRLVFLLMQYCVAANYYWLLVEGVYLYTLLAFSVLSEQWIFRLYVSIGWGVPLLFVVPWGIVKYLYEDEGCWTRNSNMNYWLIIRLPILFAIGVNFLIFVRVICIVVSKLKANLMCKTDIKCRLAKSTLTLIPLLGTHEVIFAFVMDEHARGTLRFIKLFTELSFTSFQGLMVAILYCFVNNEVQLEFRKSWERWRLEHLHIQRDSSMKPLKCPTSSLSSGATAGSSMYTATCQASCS
# Excerpt: as §1
# [3] = target: T3, GIP receptor (Homo sapiens, UniProt P48546); experiment: cAMP induction, firefly luciferase-based reporter assay in HEK293 cells co-transfected with GIP receptor; assay type: cell-based; details: EC50 at GIP Receptor, Table 5, analogs of SEQ ID NO: 10
# T3 construct: expressed in transfected cells; host or cells: HEK293
# T3 sequence (P48546 22-466): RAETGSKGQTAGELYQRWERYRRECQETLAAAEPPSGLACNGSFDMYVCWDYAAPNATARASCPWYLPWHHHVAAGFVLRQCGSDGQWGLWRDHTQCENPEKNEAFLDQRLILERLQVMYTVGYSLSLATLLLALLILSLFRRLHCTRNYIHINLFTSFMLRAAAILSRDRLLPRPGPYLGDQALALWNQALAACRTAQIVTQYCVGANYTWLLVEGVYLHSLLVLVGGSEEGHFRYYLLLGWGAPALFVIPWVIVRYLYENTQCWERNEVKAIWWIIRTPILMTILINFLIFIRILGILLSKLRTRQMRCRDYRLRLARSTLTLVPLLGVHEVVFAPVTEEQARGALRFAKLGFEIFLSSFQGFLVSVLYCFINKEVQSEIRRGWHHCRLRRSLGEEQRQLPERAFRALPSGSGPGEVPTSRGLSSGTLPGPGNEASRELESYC
# Excerpt: as §1
# [4] = target: T3, GIP receptor; details: cited from earlier work
Molecule,EC50 [1],EC50 [2],EC50 [3],activation of the GIP receptor [4],activity of native GIP at the GIP receptor ([4]; relative to native GIP)
CCCCCCCCCCCCCCCC(=O)N[C@@H](CCC(=O)NCCCC[C@H](NC(=O)[C@H](CC(=O)O)NC(=O)[C@H](CO)NC(=O)[C@@H](NC(=O)[C@H](Cc1ccccc1)NC(=O)[C@@H](NC(=O)CNC(=O)[C@H](CCC(N)=O)NC(=O)C(C)(C)NC(=O)[C@@H](N)Cc1c[nH]cn1)[C@@H](C)O)[C@@H](C)O)C(=O)N[C@@H](CO)C(=O)N[C@@H](CCCCN)C(=O)N[C@@H](Cc1ccc(O)cc1)C(=O)N[C@@H](CC(C)C)C(=O)N[C@@H](CC(=O)O)C(=O)N[C@@H](CCC(=O)O)C(=O)N[C@@H](CCCNC(=N)N)C(=O)N[C@@H](C)C(=O)N[C@@H](C)C(=O)N[C@@H](CCC(N)=O)C(=O)N[C@@H](CC(=O)O)C(=O)N[C@@H](Cc1ccccc1)C(=O)N[C@H](C(=O)N[C@@H](CCC(N)=O)C(=O)N[C@@H](Cc1c[nH]c2ccccc12)C(=O)N[C@@H](CC(C)C)C(=O)N[C@@H](CC(C)C)C(=O)N[C@@H](CC(=O)O)C(=O)NC(C)(C)C(=O)NCC(=O)N1CCC[C@H]1C(=O)N[C@@H](CO)C(=O)N[C@@H](CO)C(=O)NCC(=O)N[C@@H](C)C(=O)N1CCC[C@H]1C(=O)N1CCC[C@H]1C(=O)N1CCC[C@H]1C(=O)N[C@@H](CO)C(N)=O)C(C)C)C(=O)O [compound 65] (H-H[Aib]QGTFTSDK([γGlu-Palmitoyl])SKYLDERAAQDFVQWLLD[Aib]GPSSGAPPPS-NH2; N-terminus assumed),2 pM,3 pM,5 pM,–,–
Native glucagon: native human glucagon (SEQ ID NO: 1),–,–,–,does not activate the GIP receptor,~0%
